Assay results as given in patent publication US8907103B2, “Glucagon antagonists” (Metabasis Therapeutics, Inc., priority 2008, dated 2014).
Read-outs that look alike come from different tables or passages of the source.

Key:
[1] = molecular target: T1, human glucagon receptor (Homo sapiens, UniProt P47871); assay: Human glucagon receptor affinity ([125I]glucagon displacement, membrane preparation); assay type: binding
T1 construct: host or cells: human liver samples or a recombinant cell line (alternatives)
T1 sequence (P47871 26-477): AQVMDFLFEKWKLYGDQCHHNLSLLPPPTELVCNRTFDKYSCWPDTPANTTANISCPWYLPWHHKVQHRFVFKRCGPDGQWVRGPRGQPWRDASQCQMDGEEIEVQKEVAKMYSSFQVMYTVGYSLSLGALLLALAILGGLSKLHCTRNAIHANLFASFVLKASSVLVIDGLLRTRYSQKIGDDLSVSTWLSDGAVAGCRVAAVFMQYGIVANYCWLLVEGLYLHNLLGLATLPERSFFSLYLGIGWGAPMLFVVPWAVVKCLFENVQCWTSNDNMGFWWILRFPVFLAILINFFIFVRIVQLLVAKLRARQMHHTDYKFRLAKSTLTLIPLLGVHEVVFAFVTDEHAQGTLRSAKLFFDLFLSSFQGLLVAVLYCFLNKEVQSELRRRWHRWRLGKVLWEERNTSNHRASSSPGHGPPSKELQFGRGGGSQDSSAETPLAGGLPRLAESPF
Procedure: Compounds provided herein are dissolved in a suitable solvent (e.g., dimethlysulfoxide) at a concentration of 10 mM and then diluted in buffer (e.g., 50 mM Hepes, pH 7.4, 5 mM MgCl2, 1 mM CaCl2, and 0.2% BSA) to concentrations ranging from 1 nM to 100 μM. Compounds (20 μL/well) and [^125I]glucagon at the final concentration of 0.125 nM (20 μl/well) (Perkin Elmer) are added to and mixed in wells of a 96-well plate (Costar, Corning) containing 120 μL of buffer. Next, an appropriate aliquot of a membrane preparation containing the human glucagon receptor (isolated from human liver samples or obtained from a recombinant cell line) is added to the wells. The binding mixtures are incubated for 2 hrs at room temperature. In the meantime, a MultiScreen 96-well filter plate (Millipore) is treated with 200 μL of the buffer, which is vacuumed through the filter just before the binding mixtures are transferred to the plate. At the end of incubation, binding mixtures are transferred to the wells of the MultiScreen 96-well filter plate and filtered through by applying vacuum. The plate is washed once with 200 μL per well of the buffer, and the filters are dried and counted using a gamma counter.

[2] = test system: human hepatocytes; assay: Functional antagonism of glucagon-stimulated glucose production in hepatocytes; assay type: cell-based; details: human hepatocyte assay, 1 nM glucagon; read-out: Hu Hepatocyte EC50
Procedure: Primary human, monkey, dog, rat, or mouse hepatocytes are seeded onto collagen-coated 24-well plates in Williams E medium (supplemented with 10% fetal bovine serum) and incubated at 37° C. overnight in M199 medium (supplemented with 15 mM glucose and 10 nM human insulin). The following day cells are washed twice with a glucose-free Kreb-bicarbonate buffer, pH 7.4, containing 0.1% BSA. Cells are then incubated at 37° C. with the aforementioned buffer containing 1 nM glucagon and varying concentrations of a glucagon antagonist (0-100 microM). Control wells without glucagon or antagonist are also included. After 1 hour, an aliquot of the medium is removed and analyzed for glucose content by means of the glucose oxidase method. The background glucose levels observed in the control wells are subtracted from the glucagon and antagonist containing wells. A graph of % glucose concentration vs drug concentration is plotted and an EC50 value for inhibition of glucose production generated using Sigmaplot software (SAS, Cary, N.C.). Alternatively, intracellular cAMP levels are measured using standard kits and EC50 values determined by plotting these levels against drug concentration. Antagonists of the glucagon receptor inhibit glucagon-induced cAMP production.

[3] = R-isomer, read-out: Hu 1050 (nM) R
[4] = human glucagon receptor binding assay, stereo column says racemic or R-isomer, read-out: Hu IC50
[5] = S-isomer, read-out: Hu 1050 (nM) S

Compound	IC50 [1, 3]	IC50 [1, 4]	IC50 [1, 5]	EC50 [2]
Cc1cc(Cl)ccc1-c1ccc(NC(=O)C(Cc2ccc(C(=O)NCCS(=O)(=O)O)cc2)c2ccc(C3=CCC(C(C)(C)C)CC3)cc2)cc1 (single isomer, unassigned) [drawing 129 R]	7 nM	–	–	–
Cc1ccc(-c2ccc(NC(=O)C(Cc3ccc(C(=O)NCCS(=O)(=O)O)cc3)c3ccc(C4=CCC(C)(C)CC4)cc3)c(Cl)c2)c(C)c1 (racemic)	–	14 nM	–	–
CC(C)(C)C1CC=C(c2ccc(C(Cc3ccc(C(=O)NCCS(=O)(=O)O)cc3)C(=O)Nc3ccc(-c4nc5ccccc5o4)cc3)cc2)CC1 (racemic)	–	8 nM	–	116 nM
CC(C)(C)c1ccc(-c2ccc(C(Cc3ccc(C(=O)NCCS(=O)(=O)O)cc3)C(=O)Nc3ccc(C4=CCC(C(C)(C)C)CC4)cc3)cc2)cc1 (racemic)	–	12 nM	–	–
CC(C)(C)c1ccc(-c2ccc(C(Cc3ccc(C(=O)NCCS(=O)(=O)O)cc3)C(=O)Nc3ccc(-c4nc5ccccc5o4)cc3)cc2)cc1 (racemic)	–	12 nM	–	241 nM
Cc1cc(Cl)ccc1-c1ccc(NC(=O)C(Cc2ccc(C(=O)NCCS(=O)(=O)O)cc2)c2cccc(C3=CCCCC3)c2)cc1 (racemic)	–	14 nM	–	32 nM
CC(C)(C)C1CCC(c2ccc(C(Cc3ccc(C(=O)NCCS(=O)(=O)O)cc3)C(=O)Nc3ccc(-c4ccc(Cl)cc4Cl)cc3)cc2)CC1 (racemic) [drawing 110]	–	18 nM	–	–
Cc1cc(Cl)ccc1-c1ccc(NC(=O)C(Cc2ccc(C(=O)NCCS(=O)(=O)O)cc2)c2ccc(C3=CCC(C(C)(C)C)CC3)cc2)cc1 (single isomer, unassigned) [drawing 127 S]	–	–	20 nM	–
CC1(C)CC=C(c2ccc(C(Cc3ccc(C(=O)NCCS(=O)(=O)O)cc3)C(=O)Nc3ccc(-c4ccc(C(C)(C)C)cc4)cc3Cl)cc2)CC1 (racemic)	–	10 nM	–	–
CC(C)(C)c1ccc(-c2ccc(C(Cc3ccc(C(=O)NCCS(=O)(=O)O)cc3)C(=O)Nc3ccc(-c4cccc(Cl)c4)cc3)cc2)cc1 (racemic)	–	12 nM	–	661 nM
CC12CCC(C=C1c1ccc(C(Cc3ccc(C(=O)NCCS(=O)(=O)O)cc3)C(=O)Nc3ccc(-c4nc5ccccc5o4)cc3)cc1)C2(C)C (racemic)	–	18 nM	–	27 nM
Cc1cc(C)c2oc(-c3ccc(NC(=O)C(Cc4ccc(C(=O)NCCS(=O)(=O)O)cc4)c4ccc(-c5ccc(C(C)(C)C)cc5)cc4)cc3)nc2c1 (racemic)	–	11 nM	–	560 nM
CC(C)(C)c1ccc(-c2ccc(C(Cc3ccc(C(=O)NCCS(=O)(=O)O)cc3)C(=O)Nc3ccc(-c4cc(Cl)cc(Cl)c4)cc3)cc2)cc1 (racemic)	–	15 nM	–	132 nM
Cc1cc(Cl)ccc1-c1ccc(NC(=O)C(Cc2ccc(C(=O)NCCS(=O)(=O)O)cc2)c2ccc(C3=CCC(C)(C)CC3)cc2)cc1 (stereo not shown) [drawing 133 R]	10 nM	–	–	–
CC(C)(C)C1CCC(c2ccc(C(Cc3ccc(C(=O)NCCS(=O)(=O)O)cc3)C(=O)Nc3ccc(-c4nc5ccccc5o4)cc3)cc2)CC1 (racemic)	–	18 nM	–	161 nM
CC(C)(C)C1CCC(c2ccc(C(Cc3ccc(C(=O)NCCS(=O)(=O)O)cc3)C(=O)Nc3ccc(-c4ccc(C(F)(F)F)cc4Cl)cc3)cc2)CC1 (racemic)	–	12 nM	–	30 nM
CC1(C)CC=C(c2ccc(C(Cc3ccc(C(=O)NCCS(=O)(=O)O)cc3)C(=O)Nc3ccc(-c4ccc(C(F)(F)F)cc4Cl)cc3)cc2)CC1 (racemic)	–	15 nM	–	137 nM
CC1(C)CC=C(c2ccc(NC(=O)C(Cc3ccc(C(=O)NCCS(=O)(=O)O)cc3)c3ccc(-c4ccc(C(C)(C)C)cc4)cc3)cc2)CC1 (racemic)	–	18 nM	–	60 nM
Cc1ccc(-c2ccc(NC(=O)C(Cc3ccc(C(=O)NCCS(=O)(=O)O)cc3)c3ccc(C4=CCC(C)(C)CC4)cc3)c(Cl)c2)cc1Cl (racemic)	–	16 nM	–	–
Cc1cc(C)c(-c2ccc(NC(=O)C(Cc3ccc(C(=O)NCCS(=O)(=O)O)cc3)c3ccc(C4=CCC(C)(C)CC4)cc3)cc2)c(C)c1 (racemic)	–	12 nM	–	–
Cc1ccc(-c2cc(Cl)c(NC(=O)C(Cc3ccc(C(=O)NCCS(=O)(=O)O)cc3)c3ccc(C=CC(C)(C)C)cc3)cc2C)cc1F (racemic)	–	20 nM	–	143 nM
CC1(C)C=CC(c2cccc(C(Cc3ccc(C(=O)NCCS(=O)(=O)O)cc3)C(=O)Nc3ccc(-c4ccc(Cl)cc4Cl)cc3)c2)=CC1 (racemic)	–	18 nM	–	61 nM
Cc1cc(C(F)(F)F)ccc1-c1ccc(NC(=O)C(Cc2ccc(C(=O)NCCS(=O)(=O)O)cc2)c2ccc(C3=CCCCC3)cc2)cc1 (racemic)	–	16 nM	–	78 nM
O=C(NCCS(=O)(=O)O)c1ccc(CC(C(=O)Nc2ccc(-c3ccc(C(F)(F)F)cc3Cl)cc2)c2ccc(C3=CCCCC3)cc2)cc1 (racemic)	–	16 nM	–	–

The next lines start with results.

IC50 [1, 3]	IC50 [1, 4]	IC50 [1, 5]	Compound	EC50 [2]
11 nM	–	–	Cc1cc(Cl)ccc1-c1ccc(NC(=O)C(Cc2ccc(C(=O)NCCS(=O)(=O)O)cc2)c2ccc(-c3ccc(C(C)(C)C)cc3)cc2)cc1 (stereo not shown) [drawing 131 R]	–
–	18 nM	–	CC(C)(C)c1ccc(-c2ccc(C(Cc3ccc(C(=O)NCCS(=O)(=O)O)cc3)C(=O)Nc3ccc(-c4c(Cl)cccc4Cl)cc3)cc2)cc1 (racemic)	–
–	10 nM	–	Cc1ccc(Cl)cc1-c1ccc(NC(=O)C(Cc2ccc(C(=O)NCCS(=O)(=O)O)cc2)c2ccc(-c3ccc(C(C)(C)C)cc3)cc2)cc1 (racemic)	192 nM
–	19 nM	–	Cc1cc(Cl)ccc1-c1ccc(NC(=O)C(Cc2ccc(C(=O)NCCS(=O)(=O)O)cc2)c2cccc(C3=CCC(C)(C)C=C3)c2)cc1 (racemic)	108 nM
–	19 nM	–	Cc1cc(Cl)ccc1-c1ccc(NC(=O)C(Cc2ccc(C(=O)NCCS(=O)(=O)O)cc2)c2ccc(-c3ccc(C(C)(C)C)cc3)cc2)c(Cl)c1 (racemic)	–
–	15 nM	–	CC(C)(C)c1ccc(-c2cccc(C(Cc3ccc(C(=O)NCCS(=O)(=O)O)cc3)C(=O)Nc3ccc(-c4ccc(Cl)cc4Cl)cc3)c2)cc1 (racemic)	215 nM
10 nM	–	–	Cc1cccc2oc(-c3ccc(NC(=O)C(Cc4ccc(C(=O)NCCS(=O)(=O)O)cc4)c4ccc(-c5ccc(C(C)(C)C)cc5)cc4)cc3)nc12 (single isomer, unassigned) [drawing 135 R]	–
–	18 nM	–	CC(C)(C)c1ccc(-c2ccc(C(Cc3ccc(C(=O)NCCS(=O)(=O)O)cc3)C(=O)Nc3ccc(-c4ccccc4Cl)cc3)cc2)cc1 (racemic)	412 nM
–	–	49 nM	Cc1cccc2oc(-c3ccc(NC(=O)C(Cc4ccc(C(=O)NCCS(=O)(=O)O)cc4)c4ccc(-c5ccc(C(C)(C)C)cc5)cc4)cc3)nc12 (single isomer, unassigned) [drawing 135 S]	–
–	–	61 nM	Cc1cc(Cl)ccc1-c1ccc(NC(=O)C(Cc2ccc(C(=O)NCCS(=O)(=O)O)cc2)c2ccc(C=CC(C)(C)C)cc2)cc1 (single isomer, unassigned) [drawing 125 S]	–
–	10 nM	–	CC(C)(C)c1ccc(-c2ccc(C(Cc3ccc(C(=O)NCCS(=O)(=O)O)cc3)C(=O)Nc3ccc(-c4ccc(Cl)c(Cl)c4)cc3)cc2)cc1 (racemic)	–
14 nM	–	–	Cc1cc(Cl)ccc1-c1ccc(NC(=O)C(Cc2ccc(C(=O)NCCS(=O)(=O)O)cc2)c2ccc(C=CC(C)(C)C)cc2)cc1 (single isomer, unassigned) [drawing 125 R]	–
–	8 nM	–	Cc1cc(NC(=O)C(Cc2ccc(C(=O)NCCS(=O)(=O)O)cc2)c2ccc(-c3ccc(C(C)(C)C)cc3)cc2)ccc1-c1nc2ccccc2o1 (racemic)	167 nM
–	–	19 nM	Cc1cc(Cl)ccc1-c1ccc(NC(=O)C(Cc2ccc(C(=O)NCCS(=O)(=O)O)cc2)c2ccc(C3=CCC(C(C)(C)C)CC3)cc2)cc1 (single isomer, unassigned) [drawing 129 S]	–
6 nM	–	–	Cc1cc(Cl)ccc1-c1ccc(NC(=O)C(Cc2ccc(C(=O)NCCS(=O)(=O)O)cc2)c2ccc(C3=CCC(C(C)(C)C)CC3)cc2)cc1 (single isomer, unassigned) [drawing 127 R]	–
–	15 nM	–	Cc1cc(Cl)ccc1-c1ccc(NC(=O)C(Cc2ccc(C(=O)NCCS(=O)(=O)O)cc2)c2cccc(-c3ccc(C(C)(C)C)cc3)c2)cc1 (racemic)	329 nM
–	10 nM	–	Cc1ccc(-c2ccc(NC(=O)C(Cc3ccc(C(=O)NCCS(=O)(=O)O)cc3)c3ccc(-c4ccc(C(C)(C)C)cc4)cc3)cc2)cc1Cl (racemic)	–
